Measurements: publication PMC5175396, “Cytotoxicity of Plumbagin, Rapanone and 12 other naturally occurring Quinones from Kenyan Flora towards human carcinoma cells” (BMC Pharmacology & Toxicology, 2016)

Experiments:
[1] = system: A549 human non-small cell lung cancer (NSCLC) cell line; assay: Neutral red (NR) uptake cytotoxicity assay, A549; format: cell-based; conditions: for IC50: Homo sapiens, A549, 72 h, neutral red assay, 72 h incubation; for selectivity index A549: IC50 in CRL2120 normal fibroblasts divided by IC50 in A549
Text: (§1) Six human cancer cell lines and one normal cell line were used in this study. They included A549 human non-small cell lung cancer (NSCLC) cell line, obtained from the Institute for Fermentation, Osaka (IFO, Japan) and provided by Prof. Dr. Tansu Koparal (Anadolu University, Eskisehir, Turkey), SPC212 human mesothelioma cell line obtained from American Type Culture Collection (ATCC) and provided by Dr. Asuman Demiroğlu Zergeroğlu (Gebze Technical University, Kocaeli, Turkey), DLD-1 colorectal adenocarcinoma cell lines obtained from ATCC (CCL-221), Caco2 colorectal adenocarcinoma cells (ATCC, HTB-37) obtained from the ŞAP Institute of Turkey (Ankara), HepG2 hepatocarcinoma cells (ATCC, HB-8065) and MCF-7 breast adenocarcinoma cells (ATCC, HTB-22) were provided by Prof. Dr. Tansu Koparal (Anadolu University, Eskisehir, Turkey). The normal CRL2120 human skin fibroblasts were obtained from ATCC [CCD1094Sk (ATCC, CRL-2120)]. The cells were maintained as a monolayer in DMEM medium (Sigma-aldrich, Munich, Germany) medium supplemented with 10% fetal calf serum and 1% penicillin (100 U/mL)-streptomycin (100 μg/mL) in a humidified 5% CO2 atmosphere at 37 °C.
(§2) The cytotoxicity of samples was performed by NR uptake assay as previously described. This method is based on the ability of viable cells to incorporate and bind the supravital dye NR in the lysosomes. […] Briefly, cells were detached by treatment with 0.25% trypsin/EDTA (Invitrogen) and an aliquot of 1 × 10^4 cells was placed in each well of a 96-well cell culture plate (Thermo Scientific, Germany) in a total volume of 200 μL. The cells were allowed to attach overnight and subsequently treated with different concentrations of the 14 compounds. Each of the studied samples was immediately added in varying concentrations in additional 100 μL of culture medium to obtain a total volume of 200 μL/well. After 72 h incubation in humidified 5% CO2 atmosphere at 37 °C, the medium was removed and 200 μL fresh medium containing 50 μg/mL NR was added to each well and incubation continued for an additional 3 h at 37 °C in 5% CO2 atmosphere. The dye medium was then removed and each well was then washed rapidly with 200 μL phosphate buffer saline (PBS) followed by addition of 200 μL of acetic acid-water-ethanol in water (1:49:50). The plates were kept for 15 min at room temperature to extract the dye and then shaken for a few minutes on a GFL 3012 shaker (Gesellschaft für Labortechnik mbH, Burgwedel, Germany). Absorbance was measured on ELx 808 Ultra Microplate Reader (Biotek) equipped with a 540 nm filter. Each assay was done at least three times, with three replicates each. The viability was evaluated based on a comparison with untreated cells. The IC50 values represent the sample’s concentrations required to inhibit 50% of cell proliferation and were calculated from a calibration curve by linear regression using Microsoft Excel.

[2] = system: DLD-1 colorectal adenocarcinoma cell lines; assay: Neutral red (NR) uptake cytotoxicity assay, DLD-1; format: cell-based, human; conditions: for IC50: Homo sapiens, DLD-1, neutral red assay, 72 h incubation, read-out: IC50 DLD-1
Text: as §1
as §2, with “lysosomes. The procedure is cheaper and more sensitive than other cytotoxicity tests.” for “lysosomes.”

[3] = Neutral red (NR) uptake cytotoxicity assay, Caco-2; format: cell-based, human; conditions: human; IC50 in CRL2120 normal fibroblasts divided by IC50 in Caco-2; read-out: selectivity index Caco-2 (converted)
Text: as §1
as §2, with “lysosomes. The procedure is cheaper and more sensitive than other cytotoxicity tests.” for “lysosomes.”

[4] = system: Caco2 colorectal adenocarcinoma cells; assay: Neutral red (NR) uptake cytotoxicity assay, Caco-2; format: cell-based, human; conditions: Homo sapiens, Caco-2; neutral red assay, 72 h incubation
Text: as §1
as §2, with “lysosomes. The procedure is cheaper and more sensitive than other cytotoxicity tests.” for “lysosomes.”

[5] = system: normal CRL2120 human skin fibroblasts; assay: Neutral red (NR) uptake cytotoxicity assay, normal CRL2120 fibroblasts; format: cell-based; conditions: Skin fibroblast, 72 h incubation
Text: as §1
as §2, with “lysosomes. The procedure is cheaper and more sensitive than other cytotoxicity tests.” for “lysosomes.”

MCF-7 cells = assay: Flow cytometry cell cycle analysis and detection of apoptotic cells; format: cell-based, human; conditions: for Sub-G0/G1 (apoptotic) cells, % of cells: non-treated cells 3.1%; for cell cycle arrest: ¼ × IC50 to IC50, 72 h
Experimental: The cell-cycle analysis was performed by flow cytometry using BD cycletest^TM Plus DNA Kit Assay (BD Biosciences, San Jose, USA). The BD Cycletest™ Plus DNA kit provides a set of reagents for isolating and staining cell nuclei. Flow cytometric analysis of differentially stained cells is used to estimate the DNA index (DI) and cell-cycle phase distributions. Briefly, MCF-7 cells (3 mL, 1 × 10^5 cells/mL) were seeded into each well of 6-well plates and allowed to attach for 24 h. […] The untreated cells (control) were also included in the assay. They were further trypsinized and suspended in 1 mL PBS, then centrifuged at 400 g for 5 min at room temperature (RT). The cells were further processed according to the manufacturer protocol: addition of 250 μL of solution A (trypsin buffer), 10 min incubation at RT followed by the addition of 200 μL of solution B (trypsin inhibitor and RNAse buffer), 10 min incubation at RT followed by the addition of 200 μL of solution C (2–8 °C) (propidium iodide stain solution), 10 min on ice. The cells were further measured on a BD FACS Aria I Cell Sorter Flow Cytometer (Becton-Dickinson, Germany). For each sample, 10^4 cells were counted. For PI excitation, an argon-ion laser emitting at 488 nm was used. Cytographs were analyzed using BD FACSDiva™ Flow Cytometry Software Version 6.1.2 (Becton-Dickinson).

CC1=CC(=O)c2c(O)cccc2C1=O [Compound 4, 5-hydroxy-2-methyl-1,4-naphthalenedione]
IC50 [1]: 1.14 ± 0.02 µM
selectivity index A549 [1]: 59.35
IC50 [2]: 0.98 ± 0.11 µM
selectivity ratio at 72 h [3]: 967
IC50 [4]: 0.07 ± 0.01 µM
IC50 [5]: 67.7 ± 6.49 µM
Sub-G0/G1 (apoptotic) cells, % of cells (MCF-7 cells; 1/4xIC50, 72 h): 10.4%
Sub-G0/G1 (apoptotic) cells, % of cells (MCF-7 cells; IC50, 72 h): 20.4%
cell cycle arrest (MCF-7 cells): cell cycle arrest between G0/G1 and S phases

CCCCCCCCCCCCCC1=C(O)C(=O)C=C(O)C1=O [Compound 9, 2,5-dihydroxy-3-tridecyl-2,5-cyclohexadiene-1,4-dione]
IC50 [1]: 27.4 ± 1.46 µM
selectivity index A549 [1]: 3.48
IC50 [2]: 46.6 ± 5.38 µM
selectivity index DLD-1 ([2]; IC50 in CRL2120 normal fibroblasts divided by IC50 in DLD-1): 2.04
selectivity ratio at 72 h [3]: 4.15
IC50 [4]: 22.95 ± 0.13 µM
IC50 [5]: 95.2 ± 6.65 µM
Sub-G0/G1 (apoptotic) cells, % of cells (MCF-7 cells; 1/4xIC50, 72 h): 34.8%
Sub-G0/G1 (apoptotic) cells, % of cells (MCF-7 cells; IC50, 72 h): 43.2%
cell cycle arrest (MCF-7 cells): cell cycle arrest between G0/G1 and S phases
